Data as given in PubChem BioAssay AID2060907 (Molecular Pharmacology Branch, DTP, NCI, 2025).

Test system: 388556-164-R-J1-PDC complex spheroid viability
Test: Anticancer human tumor 388556-164-R-J1-PDC patient-derived colon adenocarcinoma cell line growth inhibition [RAS]
Settings: for IC50: curve of first compound; for viability, T/C: stronger effect = lower value
Method in brief: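 Tumour cells grown as complex spheroids with HUVEC endothelial cells and mesenchymal stem cells, treated with RAS pathway inhibitor combinations. Each agent spans half-log steps from near clinical Cmax, or 10 microM where Cmax is unknown.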

[1] = second compound 0.000949 µM, first compound 0.0316 µM
[2] = second compound 0.000949 µM, first compound 0.1 µM
[3] = second compound 0.000949 µM, first compound 0.316 µM
[4] = second compound 0.000949 µM, first compound 1 µM
[5] = second compound 0.000949 µM, first compound 3.16 µM
[6] = second compound 0.000949 µM, first compound 10 µM
[7] = second compound 0.003 µM, first compound 0.0316 µM
[8] = second compound 0.003 µM, first compound 0.1 µM
[9] = second compound 0.003 µM, first compound 0.316 µM
[10] = second compound 0.003 µM, first compound 1 µM
[11] = second compound 0.003 µM, first compound 3.16 µM
[12] = second compound 0.003 µM, first compound 10 µM
[13] = second compound 0.00949 µM, first compound 0.0316 µM
[14] = second compound 0.00949 µM, first compound 0.1 µM
[15] = second compound 0.00949 µM, first compound 0.316 µM
[16] = second compound 0.00949 µM, first compound 1 µM
[17] = second compound 0.00949 µM, first compound 3.16 µM
[18] = second compound 0.00949 µM, first compound 10 µM
[19] = second compound 0.03 µM, first compound 0.0316 µM
[20] = second compound 0.03 µM, first compound 0.1 µM
[21] = second compound 0.03 µM, first compound 0.316 µM
[22] = second compound 0.03 µM, first compound 1 µM
[23] = second compound 0.03 µM, first compound 3.16 µM
[24] = second compound 0.03 µM, first compound 10 µM
[25] = second compound 0.0949 µM, first compound 0.0316 µM
[26] = second compound 0.0949 µM, first compound 0.1 µM
[27] = second compound 0.0949 µM, first compound 0.316 µM
[28] = second compound 0.0949 µM, first compound 1 µM
[29] = second compound 0.0949 µM, first compound 3.16 µM
[30] = second compound 0.0949 µM, first compound 10 µM
[31] = second compound 0.3 µM, first compound 0.0316 µM
[32] = second compound 0.3 µM, first compound 0.1 µM
[33] = second compound 0.3 µM, first compound 0.316 µM
[34] = second compound 0.3 µM, first compound 1 µM
[35] = second compound 0.3 µM, first compound 3.16 µM
[36] = second compound 0.3 µM, first compound 10 µM
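Also: spheroids exposed to compound for 7 days before readout.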
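For viability, T/C in this document: 100% = DMSO vehicle control luminescence.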

CC(=O)OC12COC1CC(O)C1(C)C(=O)C(O)C3=C(C)C(OC(=O)C(O)C(NC(=O)OC(C)(C)C)c4ccccc4)CC(O)(C(OC(=O)c4ccccc4)C21)C3(C)C (stereo not given) + CCn1c(-c2cccnc2C(C)OC)c2c3cc(ccc31)N1CCOC(CC(NC(=O)C(C(C)C)N(C)C(=O)C3(F)CCN(C(=O)C#CC(C)(C)N(C)C)CC3)C(=O)N3CCCC(N3)C(=O)OCC(C)(C)C2)C1
IC50 (second compound 0.000949 µM): > 10 µM
IC50 (second compound 0.003 µM): > 10 µM
IC50 (second compound 0.00949 µM): > 10 µM
IC50 (second compound 0.03 µM): > 10 µM
IC50 (second compound 0.0949 µM): > 10 µM
IC50 (second compound 0.3 µM): > 10 µM
viability, T/C [1]: 86%
viability, T/C [2]: 83.4%
viability, T/C [3]: 70.5%
viability, T/C [4]: 73.7%
viability, T/C [5]: 80.7%
viability, T/C [6]: 74.7%
viability, T/C [7]: 92.2%
viability, T/C [8]: 78.8%
viability, T/C [9]: 79%
viability, T/C [10]: 76%
viability, T/C [11]: 75.1%
viability, T/C [12]: 74.4%
viability, T/C [13]: 86%
viability, T/C [14]: 83.4%
viability, T/C [15]: 76.6%
viability, T/C [16]: 75%
viability, T/C [17]: 79.4%
viability, T/C [18]: 71%
viability, T/C [19]: 95.5%
viability, T/C [20]: 81.7%
viability, T/C [21]: 70.7%
viability, T/C [22]: 71.7%
viability, T/C [23]: 79.1%
viability, T/C [24]: 74.2%
viability, T/C [25]: 80.7%
viability, T/C [26]: 79.2%
viability, T/C [27]: 81.8%
viability, T/C [28]: 76.3%
viability, T/C [29]: 78%
viability, T/C [30]: 69.6%
viability, T/C [31]: 79.7%
viability, T/C [32]: 70.3%
viability, T/C [33]: 71.3%
viability, T/C [34]: 73.8%
viability, T/C [35]: 71.4%
viability, T/C [36]: 69%

CCC(CC)c1cc(NC2CCC(N)C2)n2nccc2n1 (stereo not given) + CCn1c(-c2cccnc2C(C)OC)c2c3cc(ccc31)N1CCOC(CC(NC(=O)C(C(C)C)N(C)C(=O)C3(F)CCN(C(=O)C#CC(C)(C)N(C)C)CC3)C(=O)N3CCCC(N3)C(=O)OCC(C)(C)C2)C1
IC50 (second compound 0.000949 µM): 4.85 µM
IC50 (second compound 0.003 µM): 4.46 µM
IC50 (second compound 0.00949 µM): 5.17 µM
IC50 (second compound 0.03 µM): 4.12 µM
IC50 (second compound 0.0949 µM): 4.76 µM
IC50 (second compound 0.3 µM): 2.94 µM
viability, T/C [1]: 101%
viability, T/C [2]: 95.6%
viability, T/C [3]: 104%
viability, T/C [4]: 106%
viability, T/C [5]: 60.2%
viability, T/C [6]: 32.8%
viability, T/C [7]: 113%
viability, T/C [8]: 105%
viability, T/C [9]: 100%
viability, T/C [10]: 104%
viability, T/C [11]: 57.6%
viability, T/C [12]: 31.9%
viability, T/C [13]: 112%
viability, T/C [14]: 106%
viability, T/C [15]: 102%
viability, T/C [16]: 93.2%
viability, T/C [17]: 64%
viability, T/C [18]: 30.4%
viability, T/C [19]: 105%
viability, T/C [20]: 102%
viability, T/C [21]: 107%
viability, T/C [22]: 106%
viability, T/C [23]: 54.3%
viability, T/C [24]: 35.6%
viability, T/C [25]: 110%
viability, T/C [26]: 87.3%
viability, T/C [27]: 100%
viability, T/C [28]: 103%
viability, T/C [29]: 58.3%
viability, T/C [30]: 34.8%
viability, T/C [31]: 101%
viability, T/C [32]: 89.9%
viability, T/C [33]: 92.6%
viability, T/C [34]: 91.6%
viability, T/C [35]: 47.2%
viability, T/C [36]: 34.4%

Cc1nc(N2CCC3(CC2)COC(C)C3N)c(CO)nc1Sc1ccnc(N)c1Cl (stereo not given) + CCn1c(-c2cccnc2C(C)OC)c2c3cc(ccc31)N1CCOC(CC(NC(=O)C(C(C)C)N(C)C(=O)C3(F)CCN(C(=O)C#CC(C)(C)N(C)C)CC3)C(=O)N3CCCC(N3)C(=O)OCC(C)(C)C2)C1
IC50 (second compound 0.000949 µM): > 10 µM
IC50 (second compound 0.003 µM): 5.69 µM
IC50 (second compound 0.00949 µM): 4.81 µM
IC50 (second compound 0.03 µM): 5.74 µM
IC50 (second compound 0.0949 µM): 3.95 µM
IC50 (second compound 0.3 µM): 2.34 µM
viability, T/C [1]: 97.1%
viability, T/C [2]: 95.6%
viability, T/C [3]: 77.4%
viability, T/C [4]: 55.2%
viability, T/C [5]: 56%
viability, T/C [6]: 47.1%
viability, T/C [7]: 108%
viability, T/C [8]: 93.9%
viability, T/C [9]: 76.7%
viability, T/C [10]: 66.4%
viability, T/C [11]: 56%
viability, T/C [12]: 44.6%
viability, T/C [13]: 91.5%
viability, T/C [14]: 99.9%
viability, T/C [15]: 82.9%
viability, T/C [16]: 61.7%
viability, T/C [17]: 57.3%
viability, T/C [18]: 43.7%
viability, T/C [19]: 105%
viability, T/C [20]: 98.7%
viability, T/C [21]: 75.6%
viability, T/C [22]: 63.4%
viability, T/C [23]: 56.4%
viability, T/C [24]: 45.1%
viability, T/C [25]: 90.1%
viability, T/C [26]: 95%
viability, T/C [27]: 75%
viability, T/C [28]: 62.8%
viability, T/C [29]: 56%
viability, T/C [30]: 40.5%
viability, T/C [31]: 92.5%
viability, T/C [32]: 86.7%
viability, T/C [33]: 65.2%
viability, T/C [34]: 55.6%
viability, T/C [35]: 52.4%
viability, T/C [36]: 40.1%

NC1c2ccccc2OC12CCN(c1cnc3c(N4CCCc5ncccc54)n[nH]c3n1)CC2 (stereo not given) + CCn1c(-c2cccnc2C(C)OC)c2c3cc(ccc31)N1CCOC(CC(NC(=O)C(C(C)C)N(C)C(=O)C3(F)CCN(C(=O)C#CC(C)(C)N(C)C)CC3)C(=O)N3CCCC(N3)C(=O)OCC(C)(C)C2)C1
IC50 (second compound 0.000949 µM): 0.192 µM
IC50 (second compound 0.003 µM): 0.22 µM
IC50 (second compound 0.00949 µM): 0.239 µM
IC50 (second compound 0.03 µM): 0.129 µM
IC50 (second compound 0.0949 µM): 0.18 µM
IC50 (second compound 0.3 µM): 0.1 µM
viability, T/C [1]: 63.8%
viability, T/C [2]: 54.9%
viability, T/C [3]: 46%
viability, T/C [4]: 40.4%
viability, T/C [5]: 44%
viability, T/C [6]: 35.3%
viability, T/C [7]: 70.6%
viability, T/C [8]: 56.3%
viability, T/C [9]: 49.1%
viability, T/C [10]: 37.1%
viability, T/C [11]: 36.2%
viability, T/C [12]: 33%
viability, T/C [13]: 77.8%
viability, T/C [14]: 57.9%
viability, T/C [15]: 47.1%
viability, T/C [16]: 41.5%
viability, T/C [17]: 42%
viability, T/C [18]: 35.9%
viability, T/C [19]: 73.1%
viability, T/C [20]: 50.4%
viability, T/C [21]: 44.6%
viability, T/C [22]: 38.5%
viability, T/C [23]: 37.2%
viability, T/C [24]: 35.4%
viability, T/C [25]: 66.8%
viability, T/C [26]: 56.3%
viability, T/C [27]: 43.5%
viability, T/C [28]: 38.1%
viability, T/C [29]: 36.4%
viability, T/C [30]: 31.8%
viability, T/C [31]: 59.7%
viability, T/C [32]: 49.6%
viability, T/C [33]: 42.8%
viability, T/C [34]: 35.1%
viability, T/C [35]: 30.6%
viability, T/C [36]: 27.6%

Nc1ccn(C2OC(CO)C(O)C2(F)F)c(=O)n1 (stereo not given) + CCn1c(-c2cccnc2C(C)OC)c2c3cc(ccc31)N1CCOC(CC(NC(=O)C(C(C)C)N(C)C(=O)C3(F)CCN(C(=O)C#CC(C)(C)N(C)C)CC3)C(=O)N3CCCC(N3)C(=O)OCC(C)(C)C2)C1
IC50 (second compound 0.000949 µM): > 1 µM
IC50 (second compound 0.003 µM): > 1 µM
IC50 (second compound 0.00949 µM): > 1 µM
IC50 (second compound 0.03 µM): > 1 µM
IC50 (second compound 0.0949 µM): > 1 µM
IC50 (second compound 0.3 µM): > 1 µM
viability, T/C (second compound 0.000949 µM, first compound 0.00316 µM): 96%
viability, T/C (second compound 0.000949 µM, first compound 0.01 µM): 85.5%
viability, T/C [1]: 77.4%
viability, T/C [2]: 71.8%
viability, T/C [3]: 71.6%
viability, T/C [4]: 64.1%
viability, T/C (second compound 0.003 µM, first compound 0.00316 µM): 102%
viability, T/C (second compound 0.003 µM, first compound 0.01 µM): 90.5%
viability, T/C [7]: 76.8%
viability, T/C [8]: 72.1%
viability, T/C [9]: 72.4%
viability, T/C [10]: 65.8%
viability, T/C (second compound 0.00949 µM, first compound 0.00316 µM): 99.1%
viability, T/C (second compound 0.00949 µM, first compound 0.01 µM): 91.8%
viability, T/C [13]: 78.6%
viability, T/C [14]: 69.4%
viability, T/C [15]: 70%
viability, T/C [16]: 64.5%
viability, T/C (second compound 0.03 µM, first compound 0.00316 µM): 98.4%
viability, T/C (second compound 0.03 µM, first compound 0.01 µM): 92.7%
viability, T/C [19]: 79%
viability, T/C [20]: 67.5%
viability, T/C [21]: 70.6%
viability, T/C [22]: 61.7%
viability, T/C (second compound 0.0949 µM, first compound 0.00316 µM): 90.6%
viability, T/C (second compound 0.0949 µM, first compound 0.01 µM): 86.3%
viability, T/C [25]: 74.7%
viability, T/C [26]: 67.6%
viability, T/C [27]: 68.1%
viability, T/C [28]: 62.2%
viability, T/C (second compound 0.3 µM, first compound 0.00316 µM): 81.7%
viability, T/C (second compound 0.3 µM, first compound 0.01 µM): 78%
viability, T/C [31]: 69.8%
viability, T/C [32]: 68.4%
viability, T/C [33]: 67.2%
viability, T/C [34]: 59.5%
